Values quoted from earlier work in US20070092572A1, “Bone cement compositions and the like comprising an RNAIII-inhibiting peptide” (priority 2005, published 2007).
Like-named read-outs stand apart in the source and are kept apart here. Where no end group is shown, it is not given here.

What was measured:
[1] = test system: S. aureus Smith diffuse; conditions: Cellulitis/sepsis, mouse, strain Smith diffuse, +RIP
[2] = test system: S. aureus LS-1; conditions: Sepsis, mouse, strain LS-1, +RIP
[3] = test system: S. aureus LS-1; conditions: Arthritis, mouse, strain LS-1, +RIP
[4] = test system: S. aureus 8325-4; conditions: Keratitis, rabbit, strain 8325-4, +RIP
[5] = test system: S. aureus Newbould/AE-1; conditions: Mastitis, cow, strain Newbould/AE-1, +RIP
[6] = test system: MRSA, MRSE, VISA, VISE, GISA, GISE, MSSA, MSSE; conditions: Graft injection, rat, +RIP
[7] = test system: S. aureus MS; conditions: Osteomyelitis, rabbit, strain MS, +RIP
[8] = test system: S. aureus; conditions: non-amidated versus amide form

YSPWTNF(-NH2) (YSPWTNF-NH2) [RIP, amide form of a synthetic RIP analogue]
% animals disease free [1]: Up to 100%
% animals disease free [2]: 44%
% animals disease free [3]: 60%
% animals disease free [4]: 40%
% animals disease free [5]: 70-100%
% animals disease free [6]: Up to 100%
% animals disease free [7]: 58%

non-amidated form of synthetic RIP: non-amidated form of the synthetic RIP analogue YSPWTNF (YSPWTNF-OH)
activity of the peptide form [8]: inactive
